Laboratory results: US5932707A, “Thioether-containing metal chelating compounds” (Nycomed Amersham plc, priority 1993, dated 1999)
Each block holds one molecule with its values, some of them ahead of it.

Key:
[1] = Stability when handled in air; assay type: physicochemical
[2] = system: human erythrocyte ghosts; experiment: Red cell ghost (RCG) uptake; assay type: in vitro ADME; conditions: for RCG uptake: technetium complex, human erythrocyte ghosts
Method: RCG uptake is determined by incubation of a fixed amount of labelled complex with a range of ghost concentrations. The percentage of labelled complex […] is calculated for each ghost concentration to yield a single uptake figure expressed as %/mg protein.

[3] = Human plasma protein binding of technetium complexes (ultrafiltration); assay type: in vitro ADME; conditions: technetium complex, read-out: PPB % bound (converted)
Method: Human plasma protein binding was determined by ultrafiltration^(9), such that the percentage of complex bound is an indicator of the affinity of binding.
The plasma protein binding figure obtained for a given compound is highly dependent on the method of determination used^(10). Thus equilibrium dialysis measurement may lead to higher PPB figures than those obtained via ultrafiltration due to longer incubation times. Use of serum rather than plasma may also underestimate the true extent of binding. There are also significant interspecies differences.

[4] = system: V79-379A Chinese hamster cells; experiment: Hypoxic and oxic binding of 99mTc labelled compounds to cells in vitro; assay type: cell-based; conditions: 99mTc complex; for Oxic SN (supernatant): air +5% CO2; for Oxic pellet: air +5% CO2, 37° C.; for Oxic pellet / Hypoxic pellet: 10^6 cells per pellet; for Hypoxic SN (supernatant): nitrogen +5% CO2; for Hypoxic pellet: nitrogen +5% CO2, 37° C.
Method: V79-379A Chinese hamster cells were harvested from exponential suspension culture and resuspended at 1.1×10^6 cells cm^-3 in Bagle's MEM. 20 cm^3 of cells were transferred to small spinner vessels and gassed with either air +5% CO2 (oxic) or nitrogen +5% CO2 (Hypoxic) at 37° C. After 30 minutes, between 0.5 cm^3 and 1 cm^3 of ^99m Tc labelled compound was added. At timed intervals 1 cm^3 of cell suspension was withdrawn from each flask and chilled on ice in small polystyrene centrifuge tubes. The cells were centrifuged and washed three times in ice-cold medium (Eagle's MEM) to give constant counts in the cell pellet. The pellets were counted in LKB 1282 Compugamma counter. The initial supernatant was diluted 1 in 100 with saline and 1 cm^3 was counted. All samples were counted at the end of the incubation period and counts have been corrected for decay during counting but not for decay during incubation.
Attempts were made to decrease the amount of non-specific binding by incubating the cell samples in a large volume of medium for one hour at 37° C. under oxic conditions.

[5] = neutral lipophilic technetium complex; cited from earlier work

Structure (SMILES): CC(=O)NCCNC(=O)CSCCS [HL 15D, N-(2-Acetylaminoethyl)-2-mercaptoethylthioacetamide]
tendency to oxidise to the corresponding disulphide [1]: tended to oxidise to the corresponding disulphide if handled in air

RCG uptake [2]: 1.6 %/mg protein | fraction unbound [3]: 1
Structure (SMILES): CC(=O)NCCNC(=O)CSCCSC1CCCCO1 (stereo not drawn) [HL15P, N-(2-Acetylaminoethyl)-2-(tetrahydropyran-2-ylthio)ethylthioacetamide]

RCG uptake (in words) ([2]; 99mTc complex): excluded from the ghosts
Structure (SMILES): O=C([O-])CN(CCN(CC(=O)[O-])CC(=O)[O-])CCN(CC(=O)[O-])CC(=O)[O-].[99Tc+4] [^99m Tc-DTPA, reference compound]

Structure (SMILES): CC(=O)NCSCC(NCC(O)Cn1ccnc1[N+](=O)[O-])C(=O)NCC(=O)NCCN(C)C (stereo not drawn) [HL11P]
Hypoxic:oxic ratio ([4]; 0.5 hrs): 5.79 | Oxic SN (supernatant) ([4]; 0.5 hrs): 25.1 cpm/ml (10^-7) | Oxic pellet ([4]; 0.5 hrs): 0.42 cpm (×10^-5) | Hypoxic SN (supernatant) ([4]; 0.5 hrs): 22.2 cpm/ml (10^-7) | Hypoxic pellet ([4]; 0.5 hrs): 2.15 cpm (×10^-5) | Hypoxic:oxic ratio ([4]; 1.0 hrs): 2.91 | Oxic SN (supernatant) ([4]; 1.0 hrs): 24.9 cpm/ml (10^-7) | Oxic pellet ([4]; 1.0 hrs): 0.71 cpm (×10^-5) | Hypoxic SN (supernatant) ([4]; 1.0 hrs): 22.3 cpm/ml (10^-7) | Hypoxic pellet ([4]; 1.0 hrs): 1.85 cpm (×10^-5) | Hypoxic:oxic ratio ([4]; 2.0 hrs): 3.86 | Oxic SN (supernatant) ([4]; 2.0 hrs): 25.5 cpm/ml (10^-7) | Oxic pellet ([4]; 2.0 hrs): 0.99 cpm (×10^-5) | Hypoxic SN (supernatant) ([4]; 2.0 hrs): 22.2 cpm/ml (10^-7) | Hypoxic pellet ([4]; 2.0 hrs): 3.33 cpm (×10^-5) | Hypoxic:oxic ratio ([4]; 3.0 hrs): 3.60 | Oxic SN (supernatant) ([4]; 3.0 hrs): 25.6 cpm/ml (10^-7) | Oxic pellet ([4]; 3.0 hrs): 1.18 cpm (×10^-5) | Hypoxic SN (supernatant) ([4]; 3.0 hrs): 22.4 cpm/ml (10^-7) | Hypoxic pellet ([4]; 3.0 hrs): 3.72 cpm (×10^-5) | Hypoxic:oxic ratio ([4]; 4.0 hrs): 5.07 | Oxic SN (supernatant) ([4]; 4.0 hrs): 26.0 cpm/ml (10^-7) | Oxic pellet ([4]; 4.0 hrs): 1.40 cpm (×10^-5) | Hypoxic SN (supernatant) ([4]; 4.0 hrs): 22.8 cpm/ml (10^-7) | Hypoxic pellet ([4]; 4.0 hrs): 6.22 cpm (×10^-5) | Hypoxic:oxic ratio ([4]; 5.0 hrs): 3.26 | Oxic SN (supernatant) ([4]; 5.0 hrs): 25.7 cpm/ml (10^-7) | Oxic pellet ([4]; 5.0 hrs): 1.63 cpm (×10^-5) | Hypoxic SN (supernatant) ([4]; 5.0 hrs): 22.7 cpm/ml (10^-7) | Hypoxic pellet ([4]; 5.0 hrs): 4.70 cpm (×10^-5)

RCG uptake [2]: 6.7 %/mg protein | fraction unbound [3]: 0.25
Structure (SMILES): CC(=NO)C(C)(C)NCCCNC(C)(C)C(C)=NO [PnAO, reference compound]

RCG uptake [2]: 3.6 %/mg protein | fraction unbound [3]: 0.82
Structure (SMILES): CC(=O)NCCNC(=O)CCSCCSC1CCCCO1 (stereo not drawn) [HL49, N-(2-acetylaminoethyl)-3-[2-(tetrahydropyran-2-ylthio)ethylthio]propionamide]

fraction unbound [3]: 0.38
Structure (SMILES): CC(C)(S)CNCCNCC(C)(C)S [BAT, reference compound]
blood-brain barrier passage [5]: can cross the blood-brain barrier

RCG uptake [2]: 1.1 %/mg protein | fraction unbound [3]: 1
Structure (SMILES): CC(=O)NCCCNC(=O)CSCCSC1CCCCO1 (stereo not drawn) [HL60P, N-(3-acetylamino)propyl-2-(tetrahydropyran-2-ylthio)ethylthioacetamide]
